Data set [1] can be described thus: Parallel artificial membrane permeability assay (PAMPA). It is filed as in vitro ADME. As to conditions: for Ratio of mean permeability (×10^4 cm/s) related to low permeability control (atenolol): Table 7. In general terms: In PAMPA a lipid-coated filter parts donor from acceptor wells.
Data set [2] deals with T1, LZK (Homo sapiens, UniProt O43283).
T1 sequence (O43283 1-966): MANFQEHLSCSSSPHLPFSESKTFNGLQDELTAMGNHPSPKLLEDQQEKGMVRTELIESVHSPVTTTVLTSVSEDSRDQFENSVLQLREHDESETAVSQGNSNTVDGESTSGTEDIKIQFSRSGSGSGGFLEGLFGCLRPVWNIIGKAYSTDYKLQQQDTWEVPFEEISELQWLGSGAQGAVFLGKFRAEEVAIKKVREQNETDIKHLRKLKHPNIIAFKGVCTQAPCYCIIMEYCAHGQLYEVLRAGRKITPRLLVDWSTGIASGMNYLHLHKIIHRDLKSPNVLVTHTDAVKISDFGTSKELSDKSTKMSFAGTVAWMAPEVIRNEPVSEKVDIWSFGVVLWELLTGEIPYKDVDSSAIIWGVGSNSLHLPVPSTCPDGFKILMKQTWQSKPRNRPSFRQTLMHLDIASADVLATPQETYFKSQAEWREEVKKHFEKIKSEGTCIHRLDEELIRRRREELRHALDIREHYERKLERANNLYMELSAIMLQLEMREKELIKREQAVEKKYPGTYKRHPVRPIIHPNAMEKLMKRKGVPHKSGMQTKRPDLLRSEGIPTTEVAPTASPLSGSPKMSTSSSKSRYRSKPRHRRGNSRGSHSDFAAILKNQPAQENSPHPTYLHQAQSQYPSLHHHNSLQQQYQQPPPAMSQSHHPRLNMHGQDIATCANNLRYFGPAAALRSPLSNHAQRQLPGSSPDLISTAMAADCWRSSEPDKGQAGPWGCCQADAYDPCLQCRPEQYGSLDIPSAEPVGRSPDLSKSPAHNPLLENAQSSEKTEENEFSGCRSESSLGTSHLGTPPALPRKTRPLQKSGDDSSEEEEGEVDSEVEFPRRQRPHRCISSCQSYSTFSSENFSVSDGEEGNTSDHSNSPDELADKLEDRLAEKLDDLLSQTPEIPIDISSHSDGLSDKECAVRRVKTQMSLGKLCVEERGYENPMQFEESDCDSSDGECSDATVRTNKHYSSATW
Briefly: LZK degradation (doxycycline-induced LZK expression, immunoblot) in CAL33 cells. It is filed as cell-based. More on the design: V5 (named only in the vector); expressed in transfected cells; host or cells: CAL33 HNSCC cells, lentiviral T-REx system, induced with doxycycline. As to conditions: for LZK degradation / dox-induced LZK expression: CAL33, doxycycline 48 hours, LZK PROTAC 24 hours, 0-10 μM; for dox-induced LZK expression at high concentrations: 24 hours. The text has this: (§1) The ViraPower HiPerform T-REx Gateway Expression System (Invitrogen) was used to generate cells with tetracycline-inducible expression of LZK. In brief, wild-type (WT) or drug-resistant mutant (Q240S) LZK (cloned into pLenti6.3/TO/V5-DEST vector) and pLenti3.3/TR (for tetracycline repressor expression) were transfected into 293FT cells using Lipofectamine 2000 to generate lentiviral stock. Cell lines were generated by antibiotic selection (blasticidin [Gibco] and geneticin [Gibco]). Doxycycline (Sigma-Aldrich) was used at 1 μg/mL to induce LZK expression.
(§2) Generally, cells were plated in six-well or 35-mm plates for 24 hours, after which doxycycline was added or treatment with specific inhibitor was administered using […] for 48 hours. After appropriate treatment time, cells were washed with ice-cold phosphate-buffered saline without Ca and Mg (Quality Biological) and then lysed on ice with RIPA buffer (50 mM NaCl, 1.0% o IGEPAL® CA-630, 0.5% o sodium deoxycholate, 0.10% SDS, 50 mM Tris, pH 8.0) (Sigma-Aldrich) supplemented with protease inhibitor tablet (Sigma-Aldrich) and phosphatase inhibitor cocktails 2 and 3 (Sigma-Aldrich) followed by centrifugation at 15,000 rpm for 10 minutes at 4° C. Protein concentrations were determined from the cell lysate by using 660 nm Protein Assay Reagent (Pierce). Cell extracts were denatured, subjected to SDS-PAGE, transferred to PVDF membranes (Bio-Rad) and blocked for 2 hours using 5 bovine serum albumin (BSA) in phosphate-buffered saline and 0.10 Tween® 20 (PBS-T). The membranes were incubated with the specific antibodies overnight in […] at 4° C. followed by a 1 hour incubation with the appropriate horseradish peroxidase-conjugated secondary antibodies and signal was detected by chemiluminescence (Thermo Fisher).
On the technique in general: Immunoblotting shows a protein as a band on a membrane.

The nature of data set [3]: Kinetic solubility assay. It is filed as physicochemical. The following applies: kinetic from dmso stock.
The nature of data set [4]: Rat liver microsomal (RLM) stability assay. It is filed as in vitro ADME. The following applies: rat liver microsomes; read-out: RLM Stability (t1/2). (In general: Microsomes from liver hold many membrane-bound enzymes, among them those of drug oxidation.)
For data set [5], the target named is T1, LZK. Briefly: LZK inhibition in cells monitored by downstream JNK phosphorylation (dox-induced LZK). The class given is cell-based. More on the design: V5 (named only in the vector); expressed in transfected cells; host or cells: CAL33 HNSCC cells, lentiviral T-REx system, induced with doxycycline.
Source text: as §1, §2
A PathScan® Phospho-SAPK/JNK (Thr183/Tyr185) Sandwich ELISA Assay (Cell Signaling Technology) was used for ELISA assays following the manufacturer's protocol. In general, 500,000 cells were plated and treated with doxycycline the following day where appropriate and incubated at 37° C. for 48 hours. Cells were treated with the drug compound or control in 5% FBS media for 1 hour. After appropriate treatment time, cells were lysed on ice with 1x Cell Lysis Buffer (Cell Signaling Technology) supplemented with phosphatase and protease inhibitors (Sigma). Each diluted cell lysate was added to Phospho-SAPK/JNK (Thr183/Tyr185)Rabbit mAb Coated microwells in triplicate and incubated overnight at 4° C. Samples were treated with the following antibodies and incubated at 37° C. for 1 hour and 30 minutes, respectively: Detection Antibody and HRP-Linked secondary antibody. Samples were washed between treatments using 1× Wash Buffer according to the manufacturer's protocol. TMB substrate was added to each well and incubated at 37° C. for 10 minutes. Following this, STOPsolution was added to each well and absorbance was measured at 450 nm using iMark™ Microplate Absorbance Reader (Bio-Rad). Graphs display relative phospho-JNK levels.

Values after ≈ are worked out from the molar mass of the structure shown. Like-named read-outs stand apart in the source and are kept apart here.

Experimental findings from US20240190838A1, “LZK-TARGETING DEGRADERS AND METHODS OF USE” (The U.S.A., as represented by the Secretary, Department of …, priority 2020, published 2024) are described below.

Regarding `Cc1ncsc1-c1ccc([C@H](C)NC(=O)[C@@H]2C[C@@H](O)CN2C(=O)[C@@H](NCc2ccc(C(=O)N3CCC(c4cc(Nc5cc(C#N)ccn5)nc(N5CCC(F)(F)C5)c4)CC3)cc2)C(C)(C)C)cc1` [Compound 13], in data set [1], the “Ratio of mean permeability (×10^4 cm/s) related to low permeability control (atenolol)” value (from here on “Ratio of mean permeability”) is 1.31. For `Cc1ncsc1-c1ccc([C@H](C)NC(=O)[C@@H]2C[C@@H](O)CN2C(=O)[C@@H](NC(=O)CCCCCCC(=O)N2CCC(c3cc(Nc4cc(C(F)(F)F)ccn4)nc(N4CCC(F)(F)C4)c3)CC2)C(C)(C)C)cc1` [Compound 4], in data set [2], the “LZK degradation / dox-induced LZK expression” value is on record as “ineffective at degrading LZK” and the “dox-induced LZK expression at high concentrations” value was “slightly decreased dox-induced LZK expression”. As for `Cc1ncsc1-c1ccc([C@H](C)NC(=O)[C@@H]2C[C@@H](O)CN2C(=O)[C@@H](NC(=O)[C@H]2CC[C@H]2C(=O)N2CCC(c3cc(Nc4cc(C#N)ccn4)nc(N4CCC(F)(F)C4)c3)CC2)C(C)(C)C)cc1` (single isomer, unassigned) [Compound 26], the “Ratio of mean permeability” value in data set [1] is recorded as 1.47.

As a reminder, the solubility is how much of the substance goes into solution per volume. High values mean a readily soluble substance, low ones a poorly soluble substance. As to `Cc1ncsc1-c1ccc([C@H](C)NC(=O)[C@@H]2C[C@@H](O)CN2C(=O)[C@@H](NC(=O)c2cncc(C(=O)N3CCC(c4cc(Nc5cc(C#N)ccn5)nc(N5CCC(F)(F)C5)c4)CC3)c2)C(C)(C)C)cc1` [Compound 7], the Papp in data set [1] (pH 7.4) is below 1 ×10⁻⁶ cm/s. This compound also yielded a solubility in data set [3] of 26 µg/mL (≈ 27.1 µM). Further, the half-life in data set [4] was above 30 min. For the compound `Cc1ncsc1-c1ccc([C@H](C)NC(=O)[C@@H]2C[C@@H](O)CN2C(=O)[C@@H](NC(=O)[C@H](CCC(=O)N2CCC(c3cc(Nc4cc(C#N)ccn4)nc(N4CCC(F)(F)C4)c3)CC2)NC(=O)C(N)CCCNC(=N)N)C(C)(C)C)cc1` (stereo partly shown) [Compound 29], in data set [1], the “Ratio of mean permeability” value is on record as 6.74. On to `Cc1ncsc1-c1ccc([C@H](C)NC(=O)[C@@H]2C[C@@H](O)CN2C(=O)[C@@H](NC(=O)N2CCC(c3cc(Nc4cc(C#N)ccn4)nc(N4CCC(F)(F)C4)c3)CC2)C(C)(C)C)cc1` [Compound 27], for which, in data set [1], the “Ratio of mean permeability” value is 0.01. The same measure, in the same setting: in the case of `Cc1ncsc1-c1ccc([C@H](C)NC(=O)[C@@H]2C[C@@H](O)CN2C(=O)[C@@H](NCC(=O)N2CCC(c3cc(Nc4cc(C#N)ccn4)nc(N4CCC(F)(F)C4)c3)CC2)C(C)(C)C)cc1` [Compound 28] it was −1.86.

As to `C[C@@H](C(=O)N[C@H](C(=O)N1C[C@@H](NC(=O)CCCCCCC(=O)N2CCC(c3cc(Nc4cc(C#N)ccn4)nc(N4CCC(F)(F)C4)c3)CC2)C[C@H]1C(=O)N[C@@H]1CCCc2ccccc21)C1CCCCC1)N(C)C(=O)OC(C)(C)C` [Compound 30], the “Ratio of mean permeability” value in data set [1] was found to be 0.05. Moreover, the Papp in data set [1] (Table 7, read-out: Mean permeability) is 0.0001 ×10⁻⁶ cm/s. Further, in data set [2], the “LZK degradation / dox-induced LZK expression” value is on record as “did not degrade LZK”. Regarding `Cc1ncsc1-c1ccc([C@H](C)NC(=O)[C@@H]2C[C@@H](O)CN2C(=O)[C@@H](NC(=O)CCC(=O)N2CCC(c3cc(Nc4cc(C#N)ccn4)nc(N4CCC(F)(F)C4)c3)CC2)C(C)(C)C)cc1` [Compound 14], the “Ratio of mean permeability” value in data set [1] was −0.51. Take `Cc1ncsc1-c1ccc([C@H](C)NC(=O)[C@@H]2C[C@@H](O)CN2C(=O)[C@@H](NC(=O)CCCCC(=O)N2CCC(c3cc(Nc4cc(C#N)ccn4)nc(N4CCC(F)(F)C4)c3)CC2)C(C)(C)C)cc1` [Compound 12]: the “Ratio of mean permeability” value in data set [1] came to 0.61. As to `Cc1ncsc1-c1ccc([C@H](C)NC(=O)[C@@H]2C[C@@H](O)CN2C(=O)[C@@H](NC(=O)[C@H]2C[C@H](C(=O)N3CCC(c4cc(Nc5cc(C#N)ccn5)nc(N5CCC(F)(F)C5)c4)CC3)C2)C(C)(C)C)cc1` [Compound 24], the “Ratio of mean permeability” value in data set [1] was 6.74.

Consider `Cc1ncsc1-c1ccc([C@H](C)NC(=O)[C@@H]2C[C@@H](O)CN2C(=O)[C@@H](NC(=O)[C@H]2CC[C@@H]2C(=O)N2CCC(c3cc(Nc4cc(C#N)ccn4)nc(N4CCC(F)(F)C4)c3)CC2)C(C)(C)C)cc1` (single isomer, unassigned) [Compound 25], for which the “Ratio of mean permeability” value in data set [1] is on record as 0.43. Consider `O=C(CCCCCCC(=O)N1CCC(c2cc(Nc3cc(C(F)(F)F)ccn3)nc(N3CCC(F)(F)C3)c2)CC1)NCCCCNC(=O)CNc1cccc2c1C(=O)N(C1CCC(=O)NC1=O)C2=O` (stereo not shown) [Compound 5], for which, in data set [5] (CAL33 cells induced with doxycycline, 0-10 μM), the “JNK signaling inhibition by targeted degraders” value is “inhibited LZK”. For the same compound, in data set [2], the “LZK degradation / dox-induced LZK expression” value is given as “ineffective at degrading LZK” and the “dox-induced LZK expression at high concentrations” value is recorded as “slightly decreased dox-induced LZK expression”. In the case of `Cc1ncsc1-c1ccc([C@H](C)NC(=O)[C@@H]2C[C@@H](O)CN2C(=O)[C@@H](NC(=O)c2ccc(C(=O)N3CCC(c4cc(Nc5cc(C#N)ccn5)nc(N5CCC(F)(F)C5)c4)CC3)nn2)C(C)(C)C)cc1` [Compound 21], the “Ratio of mean permeability” value in data set [1] is on record as −0.11. As to `FC1(F)CCN(c2cc(C3CCNCC3)cc(Nc3cc(C(F)(F)F)ccn3)n2)C1` [LZK inhibitor 1], the “LZK inhibition in cells, measured by inhibition of downstream JNK pathway activation” value in data set [5] (dox-inducible LZK in CAL33 cells) is reported as “poor LZK inhibitor in cells”. Consider `Cc1ncsc1-c1ccc([C@H](C)NC(=O)[C@@H]2C[C@@H](O)CN2C(=O)[C@@H](NC(=O)c2ccc(C(=O)N3CCC(c4cc(Nc5cc(C#N)ccn5)nc(N5CCC(F)(F)C5)c4)CC3)cc2)C(C)(C)C)cc1` [Compound 15], for which the “Ratio of mean permeability” value in data set [1] is reported as −0.14.

For the compound `Cc1ncsc1-c1ccc([C@H](C)NC(=O)[C@@H]2C[C@@H](O)CN2C(=O)[C@@H](NC(=O)c2cc(C(=O)N3CCC(c4cc(Nc5cc(C#N)ccn5)nc(N5CCC(F)(F)C5)c4)CC3)ncn2)C(C)(C)C)cc1` [Compound 20], the “Ratio of mean permeability” value in data set [1] is reported as −0.01. For `Cc1ncsc1-c1ccc([C@H](C)NC(=O)[C@@H]2C[C@@H](O)CN2C(=O)[C@@H](NCc2cccc(CN3CCC(c4cc(Nc5cc(C#N)ccn5)nc(N5CCC(F)(F)C5)c4)CC3)n2)C(C)(C)C)cc1` [Compound 9], the “Ratio of mean permeability” value in data set [1] is −0.46.
